The source of these data is patent US20230136569A1, “USE OF NMN TO REDUCE IMMUNODEPRESSION AND IMMUNOSENESCENCE” (NUVAMID SA, priority 2020, published 2023).

Type in all cases: in vivo
A short description of data set [1]: Weight gain and water consumption of mice given the compounds in drinking water. As to conditions: old mice (15 months), 500 mg/kg p.o. in drinking water; compared with non-treated mice of 15 months (FIG. 1A). On the procedure: The administering of β-NMN at 500 mg/kg, of α-NMN at 500 mg/kg and of the vehicle (water) was obtained via oral route (p.o) in the drinking water to young and old mice. The solutions were prepared by dissolving the powder of β-NMN or α-NMN in the vehicle (water). The solution was used at ambient temperature for no more than 2 days and was freshly prepared for each new administration. The mice were weighed each week to adapt the dose of the compound to be administered. Throughout the entire phase, a standard food diet and tap water were provided ad libitum. The study comprised 4 groups each having 6 mice: • Group 1: young mice (aged 10 weeks)+drinking water (vehicle) • Groupe 2: old mice (aged 15 months)+drinking water (vehicle) • Group 3: old mice (aged 15 months)+compound I-B (alpha-NMN) in the drinking water • Group 4: old mice (aged 15 months)+compound I-A (beta-NMN) in the drinking water The water consumption of the mice was assessed per cage every other day. The mice were weighed every week. The mice in Group 3 were sacrificed after 4 weeks for organ collection and characterisation of T cell function. The mice in Group 4 were sacrificed after 6 weeks for organ collection and characterisation of T cell function. On the day of sacrifice, the mice were anaesthetised with Vetoflurane (isoflurane) and blood samples were taken from the retroorbital sinus. […]

The subject of data set [2] is CD4+ T cells producing IFNγ or IL10. As to the kind of experiment: Cytokine production by splenocytes stimulated with anti-CD3/CD28 beads for 18 h. The note with it: splenocytes of treated old mice, anti-CD3/CD28 beads 18 h (FIG. 10A). On the procedure:
The total splenocytes were stimulated with beads coated with anti-CD3/CD28 for 18 h. As shown in FIGS. 10A and 10B, ageing reduced the proportion of cells producing IFNγ and IL10 when simulated with beads coated with anti-CD3/CD28.

Data set [3] has as its system B cells present in the spleen. Kind of data set: Flow cytometry of B cells in the spleen of old mice. As to conditions: 500 mg/kg p.o., 6 weeks. How it is done:
The administering of β-NMN at 500 mg/kg, of α-NMN at 500 mg/kg and of the vehicle (water) was obtained via oral route (p.o) in the drinking water to young and old mice. The solutions were prepared by dissolving the powder of β-NMN or α-NMN in the vehicle (water). The study comprised 4 groups each having 6 mice: • Group 1: young mice (aged 10 weeks)+drinking water (vehicle) • Groupe 2: old mice (aged 15 months)+drinking water (vehicle) • Group 3: old mice (aged 15 months)+compound I-B (alpha-NMN) in the drinking water • Group 4: old mice (aged 15 months)+compound I-A (beta-NMN) in the drinking water The water consumption of the mice was assessed per cage every other day. The mice were weighed every week. The mice in Group 3 were sacrificed after 4 weeks for organ collection and characterisation of T cell function. The mice in Group 4 were sacrificed after 6 weeks for organ collection and characterisation of T cell function. On the day of sacrifice, the mice were anaesthetised with Vetoflurane (isoflurane) and blood samples were taken from the retroorbital sinus. The blood was incubated for 30 minutes at ambient temperature and then centrifuged at 1300 g for 10 minutes. After sacrificing of the mice, the spleen, thymus, and bone marrow of each animal were removed. The thymus was weighed and measured to evaluate involution thereof. For illustration purposes, photos of the thymus were taken on 5 animals per group. The thymus was divided into two parts: one part was treated with formol for histological examination. The second part was treated for characterisation of the immune cells. For characterisation of the cells, the thymus and spleen were crushed through a sieve of […] over a 50 mL tube with a syringe plunger. The bone marrow was rinsed with RPMI culture medium using a needle and syringe. The cell suspension was then centrifuged at 400 g for 5 minutes at 4° C. Lysis of the red blood cells was also performed before the cell count and use thereof for cytometry. The isolated cells of the spleen, thymus and bone marrow were marked with antibodies in accordance with the following tables to identify the proportion of effector and memory naive T and B cells. The following B cells of the spleen were also examined for characterisation as a function of the combination of proteins on the surface thereof: [table] Measured parameters: The results of flow cytometry are expressed in number or as a proportion of cells per organ. The weight of the thymus is expressed in grams.

A further data set concerns thymus. Kind of data set: Weight and size of the thymus (thymic involution) in old mice. As to conditions: old mice (15 months), 500 mg/kg p.o. in drinking water; α-NMN 4 weeks, β-NMN 6 weeks; vs non-treated old mice (FIG. 2). On the procedure: The administering of β-NMN at 500 mg/kg, of α-NMN at 500 mg/kg and of the vehicle (water) was obtained via oral route (p.o) in the drinking water to young and old mice. The solutions were prepared by dissolving the powder of β-NMN or α-NMN in the vehicle (water). The study comprised 4 groups each having 6 mice: • Group 1: young mice (aged 10 weeks)+drinking water (vehicle) • Groupe 2: old mice (aged 15 months)+drinking water (vehicle) • Group 3: old mice (aged 15 months)+compound I-B (alpha-NMN) in the drinking water • Group 4: old mice (aged 15 months)+compound I-A (beta-NMN) in the drinking water The water consumption of the mice was assessed per cage every other day. The mice were weighed every week. The mice in Group 3 were sacrificed after 4 weeks for organ collection and characterisation of T cell function. The mice in Group 4 were sacrificed after 6 weeks for organ collection and characterisation of T cell function. On the day of sacrifice, the mice were anaesthetised with Vetoflurane (isoflurane) and blood samples were taken from the retroorbital sinus. The blood was incubated for 30 minutes at ambient temperature and then centrifuged at 1300 g for 10 minutes. […] The thymus was weighed and measured to evaluate involution thereof. […] Measured parameters: The results of flow cytometry are expressed in number or as a proportion of cells per organ. […]

For `NC(=O)c1ccc[n+]([C@@H]2O[C@H](COP(=O)([O-])O)[C@@H](O)[C@H]2O)c1` (stereo in doubt) [I-A, nicotinamide mononucleotide], in data set [1], the “weight gain of the treated mice” value is “did not significantly increase the weight”. For the same molecule, in data set [2], the “response to stimulation: proportion of cells producing IFNγ” value was “lack of response”. The “number of activated B cells in the spleen” value in data set [3] (compared with the other groups (FIG. 6B)) is on record as “increase in the number of activated B cells”. In addition, in data set [3] (compared with the other groups (FIG. 6C)), the “number of memory B cells in the spleen” value is reported as “increase”. Besides, the “number of germinal B cells in the spleen” value in data set [3] (compared with the other groups (FIG. 6D)) was “increase”. The “number of B cells in the spleen” value in data set [3] (compared with the other groups of mice (FIG. 6A)) is listed as “significantly increased”. For the same molecule, the “weight and size of the thymus” value in the data set on thymus is given as “significant increase in the size of the thymus”.

For `NC(=O)c1ccc[n+]([C@H]2O[C@H](COP(=O)([O-])O)[C@@H](O)[C@H]2O)c1` (stereo in doubt) [I-B, alpha nicotinamide mononucleotide], in data set [1], the “weight gain of the treated mice” value is reported as “did not significantly increase the weight”. The “response to stimulation: proportion of cells producing IFNγ” value in data set [2] was “the response to stimulation was lower”. Moreover, in the data set on thymus, the “weight and size of the thymus” value was “did not allow an increase in the volume or size of the thymus”.
